Experimental data: patent US6825217B2, “Carbinols for the treatment of neuropathic dysfunction” (Endo Pharmaceuticals, Inc., priority 2001, dated 2004)

Assays:
[1] = Safety pharmacology, monkey; assay type: in vivo
Formalin model = assay type: in vivo; conditions: rat
Description: Formalin induces inflammatory stimulation of peripheral nerves that results in sensitization of CNS nociceptive transmission pathways. There are two phases of formalin-induced nociception: phase I—an acute nociceptive component; and phase II—a chronic nociceptive component characterized by hyperalgesia.
On the morning of formalin testing, a small metal band (0.5 g) was loosely placed around the right hind paw. The rat was placed in a cylindrical Plexiglas chamber for adaptation for a minimum of 30 minutes. Compound A, venlafaxine or a saline control was administered into the dorsal surface of the right hindpaw of the rat. The animal was then placed into the chamber of the automated formalin apparatus where movement of the formalin-injected paw was monitored and the number of paw flinches tallied by minute over the next sixty minutes. Upon completion of the test the animal was removed and euthanized.

Dog tooth pulp = assay type: in vivo; conditions: unmarked entry of animal model table
prostaglandin synthesase = assay: Prostaglandin synthesase inhibition; assay type: biochemical
[2] = system: sigma receptor sites in the brain; assay: Activity at sigma receptor sites in the brain; assay type: binding
[3] = Fourteen-day Oral Dose Range Finding Study in Rats; assay type: in vivo, rat
Rat tooth pulp = assay type: in vivo; conditions: unmarked entry of animal model table
[4] = biological target: T1, rat synaptosomal NE Reuptake (Rattus norvegicus, UniProt Q63380); assay: Norepinephrine reuptake assay (rat synaptosomal NE uptake); assay type: biochemical
T1 construct: rat synaptosomal 5-HT and NE Reuptake; from tissue; host or cells: rat synaptosomes (rat brain preparations)

[5] = Side effects at effective doses; assay type: in vivo; conditions: at effective doses for neuropathic pain
Bacterial Mutagenicity = assay: In Vitro Bacterial Mutagenicity: Modified Ames Test; assay type: cell-based
[6] = Studies in animals: addictive and respiratory depressant properties; assay type: in vivo; conditions: versus narcotic-related analgesics
[7] = biological target: T2, delta receptor sites in the brain (Homo sapiens, UniProt P41143); assay: Activity at delta receptor sites in the brain; assay type: binding
T2 construct: mu, kappa, delta or sigma receptor sites in the brain; from tissue

[8] = biological target: T3, rat synaptosomal 5-HT Reuptake (Rattus norvegicus, UniProt P31652); assay: Serotonin reuptake assay (rat synaptosomal 5-HT uptake); assay type: biochemical
T3 construct: rat synaptosomal 5-HT and NE Reuptake; from tissue; host or cells: rat synaptosomes (rat brain preparations)

Rat PQW = assay type: in vivo
Procedure: The anti-phenylquinone writhing (PQW) test modified from the methods of Siegmund et al. (Proc. Soc. Exp. Biol. Med. 95: 729-731, 1957) and Blumberg et al. (Proc. Exp. Biol. Med. 118: 763-767, 1965) was used to assess the relief from the simulated symptoms of neuropathic pain in mice. Male CF1 mice (Charles River Breeding Laboratories, Wilmington, Mass.), fasted for 16-22 hours and weighing 18-23 g, were injected with randomized and coded doses of test compounds, then challenged with 1.25 mg/kg i.p. phenyl-p-benzoquinone (phenylquinone) 5 minutes prior to the specified observation time. The phenylquinone solution (0.1 mg/ml in 5% aqueous ethanol) was prepared daily and stored in foil-wrapped amber bottles to limit degradation. Mice were observed 10 minutes for the presence or absence of the characteristic abdominal constriction and stretching response beginning 30 minutes after injection of the test compound. Activity was calculated as the percentage of mice failing to respond to the phenylquinone challenge dose. […] Median effective doses (ED50's) and 95% confidence limits were determined numerically by the methods of Thompson (Bacteriological Rev. 11: 115-145, 1947), and Litchfield and Wilcoxon (J. Pharmacol. Exp. Ther. 96: 99-113, 1949).

[9] = Anti-inflammatory effects in vivo
Mouse Tail-Flick = assay type: in vivo; parameters: key to activity in mouse Tail flick model: *: Inactive; Φ: Weakly active
[10] = biological target: T4, kappa receptor sites in the brain (Homo sapiens, UniProt P41145); assay: Activity at kappa receptor sites in the brain; assay type: binding
T4 construct: mu, kappa, delta or sigma receptor sites in the brain; from tissue

[11] = Safety pharmacology, mouse; assay type: in vivo
uptake of dopamine = biological target: T5, uptake of dopamine (Rattus norvegicus, UniProt P23977); assay: Dopamine uptake in rat brain preparations; assay type: biochemical; conditions: printed as 'and/or dopamine'
T5 construct: dopamine in rat brain preparations; from tissue; host or cells: rat brain preparations

Safety pharmacology, rat = assay type: in vivo
[12] = Abuse assay (self-administration); assay type: in vivo, Cynomologous monkeys
Procedure: Cynomologous monkeys are trained to self-administer drugs by pressing on a lever a certain number of times. The number of times an animal will press the lever before extinquishing in an attempt to self-administer drug is calculated as their fixed ratio (FR). For example, cynomologous monkeys that are trained to self-administer codeine will press the lever 300 times (FR 300) and or 10,000 times (FR 10,000) to obtain a dose of codeine. Cynomologous monkeys were trained to self-administer the compounds of the present invention.

[13] = biological target: T6, mu receptor sites in the brain (Homo sapiens, UniProt P35372); assay: Activity at mu receptor sites in the brain; assay type: binding
T6 construct: mu, kappa, delta or sigma receptor sites in the brain; from tissue

Monkey tail dip = assay type: in vivo; conditions: unmarked entry of animal model table
Rat Tail-Flick = assay type: in vivo; parameters: key to activity in rat Tail Flick model: *: Inactive; Φ: Weakly active
[14] = all administered doses, versus saline control

T1 sequence (Q63380 1-617): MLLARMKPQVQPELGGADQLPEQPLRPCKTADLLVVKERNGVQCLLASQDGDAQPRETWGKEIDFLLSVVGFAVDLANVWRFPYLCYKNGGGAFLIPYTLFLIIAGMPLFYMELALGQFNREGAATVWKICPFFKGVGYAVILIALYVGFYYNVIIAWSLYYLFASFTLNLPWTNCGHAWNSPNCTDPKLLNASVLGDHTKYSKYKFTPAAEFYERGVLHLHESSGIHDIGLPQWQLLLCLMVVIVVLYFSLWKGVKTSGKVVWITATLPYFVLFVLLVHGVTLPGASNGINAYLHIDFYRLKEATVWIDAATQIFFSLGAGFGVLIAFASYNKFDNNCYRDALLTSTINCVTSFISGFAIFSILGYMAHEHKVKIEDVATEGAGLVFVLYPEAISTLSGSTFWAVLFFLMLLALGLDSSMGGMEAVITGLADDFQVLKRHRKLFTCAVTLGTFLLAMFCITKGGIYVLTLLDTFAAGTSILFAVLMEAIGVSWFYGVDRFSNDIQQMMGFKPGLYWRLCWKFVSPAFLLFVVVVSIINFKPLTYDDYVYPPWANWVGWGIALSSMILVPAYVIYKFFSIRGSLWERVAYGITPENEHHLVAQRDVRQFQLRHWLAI
T3 sequence (P31652 whole entry): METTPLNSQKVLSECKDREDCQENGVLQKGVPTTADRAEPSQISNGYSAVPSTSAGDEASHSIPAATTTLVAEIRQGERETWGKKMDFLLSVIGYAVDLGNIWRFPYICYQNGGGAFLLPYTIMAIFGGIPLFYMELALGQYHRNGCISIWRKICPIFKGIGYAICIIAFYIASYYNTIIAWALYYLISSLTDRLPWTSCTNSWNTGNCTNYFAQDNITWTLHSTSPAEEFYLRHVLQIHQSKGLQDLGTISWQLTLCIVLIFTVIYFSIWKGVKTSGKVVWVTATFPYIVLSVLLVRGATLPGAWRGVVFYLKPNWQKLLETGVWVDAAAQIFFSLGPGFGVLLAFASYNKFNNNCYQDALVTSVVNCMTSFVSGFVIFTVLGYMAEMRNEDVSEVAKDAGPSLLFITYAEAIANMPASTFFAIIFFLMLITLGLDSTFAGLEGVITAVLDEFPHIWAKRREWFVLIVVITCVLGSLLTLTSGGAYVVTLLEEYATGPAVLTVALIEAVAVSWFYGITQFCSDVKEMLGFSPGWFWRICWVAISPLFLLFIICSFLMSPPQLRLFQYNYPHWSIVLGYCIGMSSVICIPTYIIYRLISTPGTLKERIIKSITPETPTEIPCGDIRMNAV
T5 sequence (P23977 whole entry): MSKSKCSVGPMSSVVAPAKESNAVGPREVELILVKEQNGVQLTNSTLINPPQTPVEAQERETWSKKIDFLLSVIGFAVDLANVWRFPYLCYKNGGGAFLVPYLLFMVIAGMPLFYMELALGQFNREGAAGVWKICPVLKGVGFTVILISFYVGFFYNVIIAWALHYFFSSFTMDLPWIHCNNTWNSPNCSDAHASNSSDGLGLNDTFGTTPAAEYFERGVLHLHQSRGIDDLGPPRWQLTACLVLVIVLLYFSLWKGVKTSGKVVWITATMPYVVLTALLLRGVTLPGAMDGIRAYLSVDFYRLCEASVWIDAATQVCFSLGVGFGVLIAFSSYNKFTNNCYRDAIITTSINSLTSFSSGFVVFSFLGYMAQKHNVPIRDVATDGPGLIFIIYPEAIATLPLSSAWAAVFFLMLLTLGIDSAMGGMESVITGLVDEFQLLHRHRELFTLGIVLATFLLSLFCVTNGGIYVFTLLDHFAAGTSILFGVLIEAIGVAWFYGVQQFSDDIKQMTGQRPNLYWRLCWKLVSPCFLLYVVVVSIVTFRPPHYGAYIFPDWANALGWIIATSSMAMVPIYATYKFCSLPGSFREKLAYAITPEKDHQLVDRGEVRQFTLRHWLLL
T6 sequence (P35372 whole entry): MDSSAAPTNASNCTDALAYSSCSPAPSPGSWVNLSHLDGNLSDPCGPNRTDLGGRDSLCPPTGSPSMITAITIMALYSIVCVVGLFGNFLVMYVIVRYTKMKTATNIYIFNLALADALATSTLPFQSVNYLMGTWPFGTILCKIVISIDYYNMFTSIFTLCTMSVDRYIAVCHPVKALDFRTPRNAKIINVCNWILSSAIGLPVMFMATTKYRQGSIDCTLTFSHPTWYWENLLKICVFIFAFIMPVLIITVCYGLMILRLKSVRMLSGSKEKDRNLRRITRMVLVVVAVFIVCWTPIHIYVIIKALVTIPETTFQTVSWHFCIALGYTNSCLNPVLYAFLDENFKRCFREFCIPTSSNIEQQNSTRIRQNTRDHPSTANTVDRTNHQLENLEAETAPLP
T4 sequence (P41145 whole entry): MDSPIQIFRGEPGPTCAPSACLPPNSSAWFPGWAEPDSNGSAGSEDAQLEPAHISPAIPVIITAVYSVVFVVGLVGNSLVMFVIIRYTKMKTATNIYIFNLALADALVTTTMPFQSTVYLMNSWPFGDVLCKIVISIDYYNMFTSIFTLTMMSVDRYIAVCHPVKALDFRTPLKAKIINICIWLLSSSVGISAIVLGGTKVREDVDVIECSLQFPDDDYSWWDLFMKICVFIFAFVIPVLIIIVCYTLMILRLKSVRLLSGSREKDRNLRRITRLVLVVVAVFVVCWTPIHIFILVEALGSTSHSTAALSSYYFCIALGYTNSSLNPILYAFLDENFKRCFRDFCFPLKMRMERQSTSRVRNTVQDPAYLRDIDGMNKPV
T2 sequence (P41143 whole entry): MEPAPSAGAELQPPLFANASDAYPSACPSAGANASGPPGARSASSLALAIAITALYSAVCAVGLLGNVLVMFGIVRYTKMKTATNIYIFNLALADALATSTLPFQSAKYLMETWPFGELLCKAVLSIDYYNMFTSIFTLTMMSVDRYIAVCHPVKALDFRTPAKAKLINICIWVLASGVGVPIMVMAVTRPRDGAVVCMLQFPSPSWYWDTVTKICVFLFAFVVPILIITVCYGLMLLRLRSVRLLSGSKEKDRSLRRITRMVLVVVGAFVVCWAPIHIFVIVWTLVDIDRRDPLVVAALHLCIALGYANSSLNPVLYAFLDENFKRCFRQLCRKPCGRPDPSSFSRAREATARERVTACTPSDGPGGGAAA

CN1CCC(c2ccsc2)(C(C)(C)O)CC1 [Compound A, 4-(3-thienyl)-α,α,1-trimethyl-4-piperidinemethanol]
MTD ([1]; in vivo, other: iv/sc): 16 to 32 mg/kg | LD ([1]; iv/sc): LD = 1.6-32 mg/kg | physical dep ([1]; iv/sc): non-opioid | respiratory depression, multiple of effective dose (mg/kg) ([1]; iv/sc): 16/32 | Chronic dosing: effect at 0.4 ([1]; iv/sc, 0.4, at 7 days): 0.4 = retching | Chronic dosing: effect at 1.6 ([1]; iv/sc, 1.6, at 11 days): 1.6 = death | Chronic dosing: effect at 1.6 ([1]; iv/sc, 1.6, at 20 days): 1.6 = death | effect upon hyperalgesia induced by injection of formalin into the paw (Formalin model): reliable dose dependent effect | formalin test, paw flinches, phase I (Formalin model; all administered doses (200/100/50 mg per kg), versus saline control): statistically significant effects | formalin test, paw flinches, phase II (Formalin model; [14]): statistically significant effects | formalin test, paw flinches, phase IIA (Formalin model; [14]): statistically significant effects | formalin test, paw flinches, Phase IIB (Formalin model; versus saline control): No statistical significance | activity in dog Tooth pulp model (Dog tooth pulp): showed activity | inhibition of prostaglandin synthesase activity (prostaglandin synthesase): does not inhibit | activity at sigma receptor sites [2]: does not show significant activity | NOEL (exophthalamos) [3]: NOEL < 30 mg/kg | NOAEL at 14 day ([3]; rat, in vivo): 100 mg/kg | activity in rat Tooth pulp model (Rat tooth pulp): showed activity | uptake of norepinephrine ([4]; rat brain preparations): inhibits uptake | IC50 ([4]; rat synaptosomal, read-out: NE uptake inhibition IC50): 223 nM | anticholinergic side effects, sedation or other signs of motor impairment [5]: not accompanied by anticholinergic side effects, sedation or other signs of motor impairment | In Vitro Bacterial Mutagenicity: Modified Ames Test (Bacterial Mutagenicity): Not mutagenic | addictive and respiratory depressant properties [6]: lacks the addictive and respiratory depressant properties | activity at delta receptor sites [7]: does not show significant activity | IC50 [8]: 120 nM | uptake of serotonin ([8]; rat brain preparations): inhibits uptake | ED50 (Rat PQW; Rattus norvegicus): 7.9 mg/kg | activity in rat PQW model (Rat PQW; rat, unmarked entry of animal model table): showed activity | anti-inflammatory effects in vivo [9]: does not inhibit prostaglandin synthesase activity or show anti-inflammatory effects in vivo | ED50 (Mouse Tail-Flick; Mus musculus, read-out: Mouse Tail-Flick ED50): 117 mg/kg | activity in mouse Tail flick model (Mouse Tail-Flick; mouse): Tail flick^Φ | activity at kappa receptor sites [10]: does not show significant activity | LD ([11]; po): LD = 900 mg/kg-po | cross-tolerance to morphine, multiple of effective dose ([11]; po/iv): 1-50 X | inhibition of GI motility, multiple of effective dose ([11]; po/iv): 1 X | mydriasis, multiple of effective dose ([11]; po/iv): 1 X | uptake of dopamine (uptake of dopamine): inhibits uptake | LD (Safety pharmacology, rat; po): LD = 400 mg/kg-po | anorexia, multiple of effective dose (mg/kg) (Safety pharmacology, rat; po): 10,100,300 mg/kg | physical dep (Safety pharmacology, rat; po): non-opioid | respiratory acidosis, exophthalmia, multiple of effective dose (Safety pharmacology, rat; po): 1-50 X | LD (Safety pharmacology, rat; sc): LD = 270 mg/kg-sc | monkeys responding following involuntary injections ([12]; Cynomologous monkeys): two out of four monkeys | self-administration response achieved ([12]; Cynomologous monkeys trained to self-administer): one out of four monkeys | activity at mu receptor sites [13]: does not show significant activity | activity in monkey Tail dip model (Monkey tail dip): showed activity | Rat Tail-Flick (Rat Tail-Flick): Inactive | activity in rat Tail Flick model (Rat Tail-Flick): Tail Flick*
